One may read the IC50 as the point on the concentration scale where inhibition reaches its midpoint. A word on the melting point: it is the temperature, or range, at which the solid turns liquid.

Data set [1] deals with acetic acid-induced writhing in CD-1 male mice. In words: acetic acid writhing test (model of visceral pain). Format: in vivo. To be noted: for number of stretches: writhing test 30 minutes after antagonist. As for the experimental part:
After acetic acid administration, mice were placed in individual transparent containers and, after 5 min, the number of writhes was counted during a 10 min period.
The animals, CD-1 male mice (25–27 g), were redistributed in groups, two of which were used as the control group. […] All drugs were intraperitoneally (i.p.) administered, 30 minutes before the algogen agent. Control mice were treated with 10 ml/kg of saline solution. Each group included 10–12 animals; those animals showing behavioral alterations were previously discarded. Each animal was used only once. An observer who was unaware of the different treatments carried out the collection of data.
The experimental test used was the acetic acid writhing test. The effect of the i.p. administration of 10 ml/kg of acetic acid (2%) was measured by quantifying the number of writhing responses in the three groups of animals over a 10 minutes period. Responses were measured starting 5 minutes after the algogen agent was administered. The animals used were supplied by the animal house of Universidad Rey Juan Carlos. Room temperature was kept at 22±1°C. A 12 hours light - dark cycle was started at 8:00 a.m., at constant humidity. All animals were given free access to food and water.
Background: An intraperitoneal irritant provokes the stretching counted in writhing tests.

The target of data set [2] is T1, TRPA1 (Homo sapiens, UniProt O75762). In words: Ca2+ fluorographic assay, TRPA1-IMR90 cells activated with 100 µM AITC. Format: cell-based. More on the design: expressed in transfected cells; host or cells: IMR90. As for the experimental part:
(§1) For fluorescence assays, cells expressing TRP channels (TRPV1-SH-SY5Y, TRPM8-HEK and TRPA1-IMR90) were seeded in 96-well plates (Corning Incorporated, Corning, NY) at a cell density of 40,000 cells 2 days before treatment. The day of treatment the medium was replaced with 100 µL of the dye loading solution Fluo-4 NW supplemented with probenecid 2.5 mM. Then the compounds dissolved in DMSO were added at the desired concentrations and the plate(s) were incubated at 37°C in a humidified atmosphere of 5% CO2 for 60 minutes.
(§2) The fluorescence was measured using instrument settings appropriate for excitation at 485 nm and emission at 535 nm. (POLARstar Omega BMG LAB tech). A baseline recording of 7 cycles was recorded prior to stimulation with the agonist (10 µM capsaicin for TRPV1, 100 µM menthol for TRPM8, and 100 µM AITC for TRPA1). The corresponding antagonist (10 µM Ruthenium Red for TRPV1 and TRPA1, 100 µM AMTB for TRPM8) was added for the blockade. The changes in fluorescence intensity were recorded during 15 cycles more. DMSO, at the higher concentration used in the experiment, was added to the control wells.
(§3) The degree of blockage (%) of TRP channel activity was calculated by: [drawing 1]

Data set [3] concerns TRPV1. In words: Ca2+ fluorographic assay, TRPV1-SH-SY5Y cells activated by 10 µM capsaicin. The class given is cell-based. Particulars: 50 µM compound. As for the experimental part: as §1, §2, §3
Data set [4] addresses T2, TRPM8 (Homo sapiens, UniProt Q7Z2W7).
T2 construct: expressed in transfected cells; host or cells: HEK
In words: Ca2+ fluorographic assay, TRPM8-HEK cells activated with 100 µM menthol. Format: cell-based. To be noted: 50 µM compound. As for the experimental part: as §1, §2, §3

Data set [5] has as its target T3, human recombinant COX-2 (Homo sapiens, UniProt P35354).
T3 construct: purchased Cayman Chemical Company kit 700100
T3 sequence (P35354 18-604): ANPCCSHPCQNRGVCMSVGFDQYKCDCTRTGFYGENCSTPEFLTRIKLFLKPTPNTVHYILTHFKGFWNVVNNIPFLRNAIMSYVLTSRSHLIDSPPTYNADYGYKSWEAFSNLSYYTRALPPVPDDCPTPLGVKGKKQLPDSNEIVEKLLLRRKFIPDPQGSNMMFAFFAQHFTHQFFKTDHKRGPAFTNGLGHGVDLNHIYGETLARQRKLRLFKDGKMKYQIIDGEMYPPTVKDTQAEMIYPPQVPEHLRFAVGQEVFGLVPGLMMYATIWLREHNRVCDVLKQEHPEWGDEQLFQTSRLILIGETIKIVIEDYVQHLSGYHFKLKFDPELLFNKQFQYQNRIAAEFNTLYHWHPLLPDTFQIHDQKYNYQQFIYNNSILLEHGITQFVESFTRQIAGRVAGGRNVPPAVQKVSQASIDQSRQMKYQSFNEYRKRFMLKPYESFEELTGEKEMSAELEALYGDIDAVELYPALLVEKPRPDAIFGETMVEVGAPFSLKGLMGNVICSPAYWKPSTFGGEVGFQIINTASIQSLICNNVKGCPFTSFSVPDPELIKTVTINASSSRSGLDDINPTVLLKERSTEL
The experiment in a line: COX inhibitor screening assay (Cayman kit 700100). The class given is biochemical. To be noted: at 10 mM. The text has this: A COX inhibitor screening assay (kit 700100) was used to determine the activity of isolated ovine COX-1 and human recombinant COX-2 as described by the manufacturer (Cayman Chemical Company, USA).

For data set [6], the target named is T1, TRPA1. In words: whole-cell voltage clamp of AITC-evoked currents in hTRPA1-expressing IMR-90 cells. Format: cell-based. More on the design: expressed in transfected cells; host or cells: IMR-90. Particulars: 100 µM AITC. As for the experimental part: A) Representative whole-cell voltage clamp recording from hTRPA1-expressing IMR-90. Currents were measured every second during a holding potential of -60 mV. Pre-application of 6a/b (20 s) was followed by co-application with 100 µM AITC for 60s in presence of 2.0 mM extracellular Ca^2+. Current traces of different colours denote the different concentrations of compound 6a/b tested. B) Dose response of compound 6a/b blockade activity. Solid line depicts the fitting to a Michaelis isotherm. […] Data are given as mean ± sem, with n≥4 cells) per data point. (TIF) Click here for additional data file.
A) Representative whole-cell voltage clamp recording from hTRPA1-expressing IMR-90 cells in the absence of extracellular Ca^2+. Ionic currents, at positive and negative potentials were measured every 2s during a 350 ms voltage ramp from −60 mV to +60 mV and evoked with 100 µM AITC followed by the addition of 100 µM compound 6a/b for 20s. AITC was present with drug application and after application to evaluated current reversibility B) Current-voltage relationships of TRPA1 in the absence and presence of 100 µM compound 6a/b in Ca^2+ free medium. […] Data were obtained from n≥4 cells. (TIF) Click here for additional data file.

[7] abbreviates: i.p. 30 minutes before acetic acid.

T1 sequence (O75762 whole entry): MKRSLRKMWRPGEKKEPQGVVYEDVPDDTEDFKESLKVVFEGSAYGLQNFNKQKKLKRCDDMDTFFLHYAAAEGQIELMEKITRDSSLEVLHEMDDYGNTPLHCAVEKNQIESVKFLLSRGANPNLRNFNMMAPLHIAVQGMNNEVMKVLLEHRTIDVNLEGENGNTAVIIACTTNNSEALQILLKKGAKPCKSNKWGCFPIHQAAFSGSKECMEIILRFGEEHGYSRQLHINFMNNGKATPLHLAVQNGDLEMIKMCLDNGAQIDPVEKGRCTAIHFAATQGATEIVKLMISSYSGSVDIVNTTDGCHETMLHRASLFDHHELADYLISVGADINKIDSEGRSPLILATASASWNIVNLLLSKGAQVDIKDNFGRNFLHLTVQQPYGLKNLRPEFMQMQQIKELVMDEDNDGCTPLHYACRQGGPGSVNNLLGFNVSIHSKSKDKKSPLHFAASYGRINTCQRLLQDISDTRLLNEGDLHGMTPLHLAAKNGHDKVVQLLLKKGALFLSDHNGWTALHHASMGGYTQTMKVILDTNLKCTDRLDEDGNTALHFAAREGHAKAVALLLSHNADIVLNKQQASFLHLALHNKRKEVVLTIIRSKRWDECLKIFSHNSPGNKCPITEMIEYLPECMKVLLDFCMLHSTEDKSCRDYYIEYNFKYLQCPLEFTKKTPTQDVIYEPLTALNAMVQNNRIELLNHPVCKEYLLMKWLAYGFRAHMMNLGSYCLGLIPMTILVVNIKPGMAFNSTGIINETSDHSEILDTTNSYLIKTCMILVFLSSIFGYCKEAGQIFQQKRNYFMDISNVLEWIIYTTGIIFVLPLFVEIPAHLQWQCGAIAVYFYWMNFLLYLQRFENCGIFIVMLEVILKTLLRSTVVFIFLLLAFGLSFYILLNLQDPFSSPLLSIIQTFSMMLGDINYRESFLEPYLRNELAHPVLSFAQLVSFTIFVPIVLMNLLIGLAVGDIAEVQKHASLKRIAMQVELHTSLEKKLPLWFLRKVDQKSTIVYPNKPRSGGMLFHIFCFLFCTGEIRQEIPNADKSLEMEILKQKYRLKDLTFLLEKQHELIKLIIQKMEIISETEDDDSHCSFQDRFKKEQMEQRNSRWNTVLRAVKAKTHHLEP
T2 sequence (Q7Z2W7 whole entry, species assumed): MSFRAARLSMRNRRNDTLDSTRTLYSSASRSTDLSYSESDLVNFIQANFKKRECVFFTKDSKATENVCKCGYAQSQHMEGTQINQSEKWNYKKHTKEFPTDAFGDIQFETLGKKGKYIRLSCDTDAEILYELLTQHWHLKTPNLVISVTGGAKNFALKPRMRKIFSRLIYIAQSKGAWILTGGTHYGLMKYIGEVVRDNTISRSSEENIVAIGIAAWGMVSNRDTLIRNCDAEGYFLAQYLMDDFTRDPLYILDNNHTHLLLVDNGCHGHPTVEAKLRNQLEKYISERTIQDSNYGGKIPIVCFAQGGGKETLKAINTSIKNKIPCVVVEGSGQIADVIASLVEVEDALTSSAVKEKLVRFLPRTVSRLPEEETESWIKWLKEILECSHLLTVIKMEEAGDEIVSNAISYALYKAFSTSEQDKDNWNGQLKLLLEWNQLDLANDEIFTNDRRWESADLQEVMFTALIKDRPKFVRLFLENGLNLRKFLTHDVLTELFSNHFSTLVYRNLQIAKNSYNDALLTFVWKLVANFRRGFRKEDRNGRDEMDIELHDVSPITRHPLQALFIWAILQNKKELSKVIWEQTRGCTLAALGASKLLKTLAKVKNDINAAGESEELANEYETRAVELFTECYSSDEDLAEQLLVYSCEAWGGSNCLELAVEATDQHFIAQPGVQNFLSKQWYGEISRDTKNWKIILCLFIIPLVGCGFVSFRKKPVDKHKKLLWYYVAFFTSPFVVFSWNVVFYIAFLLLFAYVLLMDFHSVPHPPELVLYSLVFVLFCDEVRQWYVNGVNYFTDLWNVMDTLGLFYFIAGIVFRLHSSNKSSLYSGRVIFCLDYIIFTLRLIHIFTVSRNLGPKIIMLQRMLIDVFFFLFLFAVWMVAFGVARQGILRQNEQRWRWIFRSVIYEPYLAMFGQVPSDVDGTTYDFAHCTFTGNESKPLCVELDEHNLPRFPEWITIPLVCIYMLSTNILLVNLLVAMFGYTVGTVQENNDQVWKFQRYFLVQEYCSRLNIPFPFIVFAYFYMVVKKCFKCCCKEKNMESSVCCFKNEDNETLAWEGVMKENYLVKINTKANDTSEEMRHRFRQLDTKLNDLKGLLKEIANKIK

Take `CC(=O)NC12CC3CC(CC(O)(C3)C1)C2` [compound 5, N-3-hydroxyadamantan-1-yl acetamide]: in data set [1] (setting [7]), the “dose at which the analgesic effect saturated” value is reported as 200 mg/kg. For the same compound, the antinociceptive activity in data set [1] (i.p. 30 minutes before acetic acid, similar to paracetamol) was about 40%.

As for `CC(=O)Nc1ccc(O)cc1` [paracetamol, 4-hydroxyacetanilide, reference compound], in data set [1] (100 mg/kg i.p. 30 minutes before acetic acid), the “reduction of the nociceptic behavior (writhes)” value turned out to be 40%.

For the compound `CC(=O)NC1C2CC3CC1CC(O)(C3)C2` (stereo not shown) [compound 6a/b, N-5-hydroxyadamantan-2-yl acetamide], in data set [2] (50 µM compound, 100 µM AITC), the “blockade of TRPA1 channel activity” value is “up to 85%”. Besides, the IC50 in data set [2] (dose-response curve, 100 µM AITC, mean ± SEM, n ≥5, read-out: TRPA1 inhibition IC50) was 2.6 µM; in data set [6] (2.0 mM extracellular Ca2+, holding potential -60 mV, estimated, read-out: IC50 of blockade of TRPA1-mediated currents) it was 10.6 ± 0.7 µM; in data set [6] (absence of extracellular Ca2+, inferred, saturation of blockade not reached, read-out: IC50 of blockade of TRPA1 currents), at least 80 µM. Moreover, the “nH (hill coefficient) of TRPA1 inhibition” value in data set [2] (fit to a binding isotherm) is 0.21. The “effect on TRPV1 channel activity” value in data set [3] is “No significative effect”. For the same compound, in data set [1] (at saturation (750 mg/kg i.p.)), the “analgesic efficacy at saturation, compared with paracetamol and morphine” value was “significantly higher than paracetamol and similar to morphine”. In addition, the number of stretches in data set [1] (compound given 30 minutes before CB1 antagonist AM251 (3 mg/kg i.p.)) was 13±1; in data set [1] (compound given 30 minutes before CB2 antagonist AM630 (1 mg/kg i.p.)) it was 15.5±1.7. In addition, the “dose at which the analgesic effect saturated” value in data set [1] (setting [7]) came to 750 mg/kg. For the same compound, the “effect on TRPM8 channel activity” value in data set [4] is recorded as “No significative effect”. In data set [5], the “effect on COX-2 enzymatic activity” value is listed as “did not affect the enzymatic activity”.

Consider `CC(=O)NC1C2CC3CC1CC(O)(C3)C2` (stereo not shown) [compound 6a, N-5-hydroxyadamantan-2-yl acetamide], for which the melting point was found to be 184 °C.

The values are drawn from PMC4249970 (PLoS ONE, 2014).
